Converted amounts (≈) assume the structure as drawn. “And” between values parts separate entries of the source, which are not always exact repeats. Identical values can stand only once. Like-named read-outs stand apart in the source and are kept apart here.
How the values were obtained:
[1] = test system: 11 β-hydroxysteroid dehydrogenase-2; design: method as in Blanford and Murphy, 1977; Murphy et al., 2007; details: ref Blanford and Murphy, 1977, Murphy et al., 2007; cited from earlier work
[2] = biological target: T1, P-gp (Homo sapiens, UniProt P08183); assay: in vitro; details: MDCK-MDR1, pH 7.4
T1 sequence (P08183 whole entry): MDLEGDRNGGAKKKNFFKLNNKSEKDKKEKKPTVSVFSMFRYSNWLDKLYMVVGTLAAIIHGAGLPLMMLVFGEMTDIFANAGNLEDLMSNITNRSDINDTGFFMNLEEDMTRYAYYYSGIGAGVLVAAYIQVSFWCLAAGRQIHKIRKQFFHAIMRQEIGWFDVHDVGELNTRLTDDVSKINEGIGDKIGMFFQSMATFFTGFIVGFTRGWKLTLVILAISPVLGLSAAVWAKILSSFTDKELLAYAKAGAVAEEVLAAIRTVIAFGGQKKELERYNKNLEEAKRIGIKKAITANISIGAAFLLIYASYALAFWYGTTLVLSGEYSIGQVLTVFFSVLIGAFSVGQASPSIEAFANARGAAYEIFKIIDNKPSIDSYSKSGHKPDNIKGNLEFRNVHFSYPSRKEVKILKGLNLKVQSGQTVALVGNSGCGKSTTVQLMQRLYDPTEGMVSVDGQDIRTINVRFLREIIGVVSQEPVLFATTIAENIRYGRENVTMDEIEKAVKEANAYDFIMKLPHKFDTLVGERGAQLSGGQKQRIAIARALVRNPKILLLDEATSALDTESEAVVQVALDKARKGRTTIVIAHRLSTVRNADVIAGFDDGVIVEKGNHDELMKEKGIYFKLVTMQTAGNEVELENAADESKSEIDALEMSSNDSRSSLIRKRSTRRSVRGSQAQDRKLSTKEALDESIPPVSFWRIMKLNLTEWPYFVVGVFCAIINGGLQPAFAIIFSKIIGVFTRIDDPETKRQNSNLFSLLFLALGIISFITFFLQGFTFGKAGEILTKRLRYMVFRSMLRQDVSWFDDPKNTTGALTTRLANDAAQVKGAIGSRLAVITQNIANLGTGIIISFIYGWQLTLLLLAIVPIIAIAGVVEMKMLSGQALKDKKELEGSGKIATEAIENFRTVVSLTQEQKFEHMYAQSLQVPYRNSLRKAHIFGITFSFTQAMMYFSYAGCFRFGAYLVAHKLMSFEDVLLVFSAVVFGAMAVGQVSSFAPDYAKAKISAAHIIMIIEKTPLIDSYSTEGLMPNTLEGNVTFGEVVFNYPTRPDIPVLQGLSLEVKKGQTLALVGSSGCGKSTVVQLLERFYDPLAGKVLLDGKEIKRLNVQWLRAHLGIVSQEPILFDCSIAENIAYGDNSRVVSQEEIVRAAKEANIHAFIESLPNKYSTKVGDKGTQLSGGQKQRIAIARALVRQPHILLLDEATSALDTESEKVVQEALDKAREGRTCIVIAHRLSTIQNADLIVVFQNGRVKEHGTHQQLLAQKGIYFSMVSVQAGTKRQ

[3] = in vivo, at term; ref Zhang and Unadkat, 2017; cited from earlier work
[4] = test system: MDCKII or Caco-2 cells; details: determined in MDCKII or Caco-2 cells; ref Zhang and Unadkat, 2017; cited from earlier work
[5] = ref DrugBank database; cited from earlier work
[6] = Estimation of in vivo transplacental passive diffusion clearance by scaling midazolam CLint,PD,placenta with Papp ratio; design: species or system human; details: at term, scaled from midazolam by Papp ratio
[7] = test system: placental P-gp; assay: m-f PBPK prediction of maternal-fetal pharmacokinetics at gestational week 20 (GW20); design: species or system human
From the text: GW20 was chosen since this is the earliest gestational age at which all the fetal physiologic parameters (e.g., organ volumes, partition coefficients, blood flows) are available.

[8] = biological target: T1, P-gp; details: for ERP-gp ERTRQ(−) − ERTRQ(+): P-gp-mediated efflux ratio
[9] = Observed or PopPK-model (published) maternal and fetal UV plasma pharmacokinetics in pregnant women; details: coadministered with RTV

C[C@H]1C[C@H]2[C@@H]3CCC4=CC(=O)C=C[C@]4(C)[C@@]3(F)[C@@H](O)C[C@]2(C)[C@@]1(O)C(=O)CO [BET, betamethasone]
metabolized over 6 hours in vitro in placental microsomes [1]: 10%–15%

C=C[C@H]1C[N@@]2CC[C@H]1C[C@@H]2[C@@H](O)c1ccnc2ccc(OC)cc12 [QND, Quinidine]
efflux ratio at 3 µM [2]: 11.1 ± 2.5

C[C@@H]1C[C@H]2[C@@H]3CCC4=CC(=O)C=C[C@]4(C)[C@@]3(F)[C@@H](O)C[C@]2(C)[C@@]1(O)C(=O)CO [DEX, dexamethasone]
metabolized over 6 hours in vitro in placental microsomes [1]: 10%–15%

Cc1ncc2n1-c1ccc(Cl)cc1C(c1ccccc1F)=NC2 [MDZ, midazolam]
CLint,PD,placenta [3]: 500 L/h | Papp [4]: 4.9e-05 cm/s

CC(C)CN(C[C@@H](O)[C@H](Cc1ccccc1)NC(=O)O[C@H]1CO[C@H]2OCC[C@H]21)S(=O)(=O)c1ccc(N)cc1 [DRV, darunavir]
solubility [5]: 16 µM (≈ 8.76 µg/mL)

Cc1cccc(C)c1OCC(=O)N[C@@H](Cc1ccccc1)[C@@H](O)C[C@H](Cc1ccccc1)NC(=O)[C@H](C(C)C)N1CCCNC1=O [LPV, lopinavir]
CLint,PD,placenta [6]: 127 L/h | CLint,P-gp,placenta ([7]; GW20, adjusted for total placental P-gp abundance): 617 L/h | CLint,PD,placenta ([7]; GW20, from term value adjusted for placental surface area): 49.5 L/h | CLint,P-gp,placenta at GW20, lower than the corresponding value at GW38 ([7]; GW20 versus GW38): 40% | fetal Kp,uu at GW20 as percent of that at GW38 ([7]; m-f PBPK predicted): 64% | fetal UV plasma AUC0-12 at GW20 as percent of that at GW38 ([7]; m-f PBPK predicted): 38% | fetal plasma Cmax at GW20 as percent of that at GW38 ([7]; m-f PBPK predicted): 41% | ERP-gp ERTRQ(−) − ERTRQ(+) ([8]; Mean ± S.D. of 4 experiments): 83.1 ± 10.1 and 83.1 ± 10.05 | ERP-gp ERTRQ(−) − ERTRQ(+) ([8]; individual experiments (Exp no. 1-4)): 94.35 and 88.78 and 73.99 and 75.27 | ERTRQ(−) ([8]; efflux ratio without tariquidar, individual experiments (Exp no. 1-4, each in triplicate), 2 µM DEX, BET, DRV, 1 µM LPV): 95.37 and 90.07 and 75.63 and 76.57 | Papp [2]: 12.5 ×10⁻⁶ cm/s | solubility [5]: 3 µM (≈ 1.89 µg/mL) | observed increase in maternal clearance in pregnancy [9]: 1.4 fold
